Laboratory results reported in PubChem BioAssay (NCI).
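Results reflect a 48-hour exposure of cells in 96-well plates to compound at five concentrations. Here, GI50 denotes the concentration required for 50% inhibition of growth. The concentration for full growth arrest is given as TGI.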

What was measured:
Experiment in all cases: inhibition of tumour cell growth, NCI panel, 48 h
NCI-H226 lung = test system: NCI-H226 lung
A498 renal = test system: A498 renal
UACC-257 melanoma = test system: UACC-257 melanoma
SK-MEL-28 melanoma = test system: SK-MEL-28 melanoma
SNB-75 CNS = test system: SNB-75 CNS
HCC-2998 colon = test system: HCC-2998 colon
SNB-19 CNS = test system: SNB-19 CNS
NCI-H460 lung = test system: NCI-H460 lung
CCRF-CEM leukemia = test system: CCRF-CEM leukemia
OVCAR-4 ovarian = test system: OVCAR-4 ovarian
SF-268 CNS = test system: SF-268 CNS
MDA-MB-231 breast = test system: MDA-MB-231 breast
OVCAR-3 ovarian = test system: OVCAR-3 ovarian
MCF7 breast = test system: MCF7 breast
MALME-3M melanoma = test system: MALME-3M melanoma
CAKI-1 renal = test system: CAKI-1 renal
HOP-62 NSCLC = test system: HOP-62 NSCLC
LOX IMVI melanoma = test system: LOX IMVI melanoma
HCT-116 colon = test system: HCT-116 colon
A549 NSCLC = test system: A549 NSCLC
RXF 393 renal = test system: RXF 393 renal
IGROV1 ovarian = test system: IGROV1 ovarian
HOP-92 NSCLC = test system: HOP-92 NSCLC
SK-MEL-5 melanoma = test system: SK-MEL-5 melanoma
NCI-H522 lung = test system: NCI-H522 lung
SF-539 CNS = test system: SF-539 CNS
OVCAR-8 ovarian = test system: OVCAR-8 ovarian
DU-145 prostate = test system: DU-145 prostate
786-0 renal = test system: 786-0 renal

CC(C)Cn1cnc2c(N)nc3ccccc3c21
GI50 (NCI-H226 lung): 73.6 µM | TGI (NCI-H226 lung): > 100 µM | GI50 (A498 renal): 47.8 µM | TGI (A498 renal): > 100 µM | GI50 (UACC-257 melanoma): 33.7 µM | TGI (UACC-257 melanoma): > 91.5 µM | GI50 (SK-MEL-28 melanoma): > 74.9 µM | TGI (SK-MEL-28 melanoma): > 100 µM | GI50 (SNB-75 CNS): 41.4 µM | TGI (SNB-75 CNS): > 100 µM | GI50 (HCC-2998 colon): > 63.5 µM | TGI (HCC-2998 colon): > 100 µM | GI50 (SNB-19 CNS): > 93.3 µM | TGI (SNB-19 CNS): > 100 µM | GI50 (NCI-H460 lung): 23.1 µM | TGI (NCI-H460 lung): > 100 µM | GI50 (CCRF-CEM leukemia): > 49 µM | TGI (CCRF-CEM leukemia): > 100 µM | GI50 (OVCAR-4 ovarian): 67.2 µM | TGI (OVCAR-4 ovarian): > 100 µM | GI50 (SF-268 CNS): 61.3 µM | TGI (SF-268 CNS): > 100 µM | GI50 (MDA-MB-231 breast): 46 µM | TGI (MDA-MB-231 breast): > 100 µM | GI50 (OVCAR-3 ovarian): > 92.9 µM | TGI (OVCAR-3 ovarian): > 100 µM | GI50 (MCF7 breast): 29.4 µM | TGI (MCF7 breast): > 100 µM | GI50 (MALME-3M melanoma): > 100 µM | TGI (MALME-3M melanoma): > 100 µM | GI50 (CAKI-1 renal): 34.8 µM | TGI (CAKI-1 renal): > 100 µM | GI50 (HOP-62 NSCLC): 22.5 µM | TGI (HOP-62 NSCLC): > 64.1 µM | GI50 (LOX IMVI melanoma): 25.7 µM | TGI (LOX IMVI melanoma): > 100 µM | GI50 (HCT-116 colon): 19.8 µM | TGI (HCT-116 colon): > 73.1 µM | GI50 (A549 NSCLC): 39.3 µM | TGI (A549 NSCLC): > 100 µM | GI50 (RXF 393 renal): 28.9 µM | TGI (RXF 393 renal): 97.2 µM | GI50 (IGROV1 ovarian): 51.8 µM | TGI (IGROV1 ovarian): > 100 µM | GI50 (HOP-92 NSCLC): 31.1 µM | TGI (HOP-92 NSCLC): > 100 µM | GI50 (SK-MEL-5 melanoma): 18.4 µM | TGI (SK-MEL-5 melanoma): 50.3 µM | GI50 (NCI-H522 lung): 78.5 µM | TGI (NCI-H522 lung): > 100 µM | GI50 (SF-539 CNS): 42.9 µM | TGI (SF-539 CNS): > 100 µM | GI50 (OVCAR-8 ovarian): 67.5 µM | TGI (OVCAR-8 ovarian): > 100 µM | GI50 (DU-145 prostate): 47.2 µM | TGI (DU-145 prostate): > 100 µM | GI50 (786-0 renal): 25.2 µM | TGI (786-0 renal): > 87.3 µM
